ChEMBL document CHEMBL3507680, “University of Dundee, Gates Library screen for HepG2 cell viability”
Where “and” joins values, the source holds several entries; their conditions need not be identical. Identical values can stand only once.

Legend:
[1] = Human HepG2 cell viability assay in 384 well format; assay type: toxicity, cell-based; set-up: dose 125 nL, time 70.5 hour; cytotoxicity at 70.5 h: concentration not given beside the values; details: HepG2 cells, read-out: Inhibition
[2] = Human HepG2 cell viability dose-response assay; assay type: toxicity, cell-based

SMILES: Cn1nc(C(=O)NCc2ccccn2)c2c1CCS(=O)(=O)C2
- cytotoxicity at 70.5 h [1]: 88.4%
- BOTTOM [2]: 0
- HILLSLOPE [2]: 0
- TOP [2]: 0
- pXC50 [2]: < 4.53

SMILES: Cc1cnc(CCN(C)C(=O)c2cccc(N(C)C)c2)s1
- cytotoxicity at 70.5 h [1]: 60.6%
- BOTTOM [2]: 0
- HILLSLOPE [2]: 0
- TOP [2]: 0
- pXC50 [2]: < 4.53

SMILES: CC(C)N1CCN(c2ccc3ccc(C(=O)NC4CCCC4)cn23)CC1.O=C(O)C(F)(F)F
- cytotoxicity at 70.5 h [1]: 101%
- BOTTOM [2]: 0
- HILLSLOPE [2]: 0
- TOP [2]: 0
- pXC50 [2]: < 4.53

SMILES: Cc1cc(NC2CCc3nc(C(C)C)nn3C2)n2ncnc2n1 (stereo unspecified)
- cytotoxicity at 70.5 h [1]: 84.4%
- BOTTOM [2]: 0
- HILLSLOPE [2]: 0
- TOP [2]: 0
- pXC50 [2]: < 4.53

SMILES: Cc1cccc(C)c1Nc1noc2c1CN(C(=O)c1cn(C)cn1)CC2
- cytotoxicity at 70.5 h [1]: 75.1%
- BOTTOM [2]: -7.032 and -2.364
- HILLSLOPE [2]: 1.548 and 1.741
- TOP [2]: 100
- pXC50 [2]: 4.986 and 4.918

SMILES: CC(C)Nc1cc(-c2c[nH]nc2C2CCN(C(=O)C3CCC3)C2)ccn1 (stereo unspecified)
- cytotoxicity at 70.5 h [1]: 95.8%
- BOTTOM [2]: 5.771 and 12.22
- HILLSLOPE [2]: 3.68 and 3.705
- TOP [2]: 97.15 and 97.9
- pXC50 [2]: 6.593 and 6.589

SMILES: OC1COCCN(Cc2cc(-c3ccccc3OC(F)(F)F)no2)C1 (stereo unspecified)
- cytotoxicity at 70.5 h [1]: 60%
- BOTTOM [2]: 0
- HILLSLOPE [2]: 0
- TOP [2]: 0
- pXC50 [2]: < 4.53

SMILES: Cl.Cl.Clc1cccc(C[C@@H]2NCCC[C@@H]2Nc2cccc(Cl)c2)c1
- cytotoxicity at 70.5 h [1]: 105%
- HILLSLOPE [2]: 19.49 and 7.416
- TOP [2]: 101.7 and 101.8
- pXC50 [2]: 5.461 and 5.474

SMILES: NCC1CCN(C2CCN(c3ccc(-c4ccco4)cc3)CC2)C1 (stereo unspecified)
- cytotoxicity at 70.5 h [1]: 102%
- BOTTOM [2]: -8.648 and -4.813
- HILLSLOPE [2]: 7.574 and 7.233
- TOP [2]: 102.1 and 102.4
- pXC50 [2]: 5.593 and 5.596

SMILES: O=C(NCCCN1CCCCC1)c1ccc(-n2ccc3ccccc32)s1
- cytotoxicity at 70.5 h [1]: 64.9%
- BOTTOM [2]: -3.023 and -2.579
- HILLSLOPE [2]: 5.041 and 5.956
- TOP [2]: 103.2 and 102.3
- pXC50 [2]: 5.01 and 4.975

SMILES: O=C(Nc1cc(C(F)(F)F)c[nH]c1=O)c1ccco1
- cytotoxicity at 70.5 h [1]: 64%
- BOTTOM [2]: -14.03 and -12.55
- HILLSLOPE [2]: 1.1 and 1.086
- TOP [2]: 100
- pXC50 [2]: 4.903 and 4.796

SMILES: COc1ccc(CNC(Cc2ccsc2)c2ccc(C)cn2)cc1OC.Cl (stereo unspecified)
- cytotoxicity at 70.5 h [1]: 91.5%
- BOTTOM [2]: -6.281 and -3.457
- HILLSLOPE [2]: 2.493 and 1.7
- TOP [2]: 86.66 and 100
- pXC50 [2]: 5.471 and 5.341

SMILES: Fc1cccc(Nc2nc(N3CCCC3)nc3c2CNCC3)c1
- cytotoxicity at 70.5 h [1]: 80.4%
- HILLSLOPE [2]: 8.053 and 11.8
- TOP [2]: 102.5 and 101.7
- pXC50 [2]: 5.055 and 5.01

SMILES: CCc1[nH]c2c(CNc3cc(C)nc(NC)n3)cc(C)cc2c1C
- cytotoxicity at 70.5 h [1]: 98.3%
- BOTTOM [2]: -3.677 and -3.483
- HILLSLOPE [2]: 3.229 and 3.201
- TOP [2]: 103.4 and 104.1
- pXC50 [2]: 5.247 and 5.258

SMILES: CC(C)c1cc(CN2CCNCC2)no1
- cytotoxicity at 70.5 h [1]: 94.6%
- BOTTOM [2]: -2.548 and -2.696
- TOP [2]: 101.6 and 102.2
- pXC50 [2]: 4.866 and 4.991

SMILES: O=C(CCNCC(F)(F)F)N1CCC(Nc2cccnn2)CC1
- cytotoxicity at 70.5 h [1]: 66.1%
- BOTTOM [2]: 0
- HILLSLOPE [2]: 0
- TOP [2]: 0
- pXC50 [2]: < 4.53

SMILES: Cc1noc(CN2CCOC(CN(C)C)C2)n1 (stereo unspecified)
- cytotoxicity at 70.5 h [1]: 70.1%
- BOTTOM [2]: 0
- HILLSLOPE [2]: 0
- TOP [2]: 0
- pXC50 [2]: < 4.53

SMILES: Cc1ccc(S(=O)(=O)N2C[C@H]3C[C@H](NC(=O)c4cc[nH]n4)[C@H]3C2)cc1
- cytotoxicity at 70.5 h [1]: 61.6%
- BOTTOM [2]: -15.24 and -16.22
- HILLSLOPE [2]: 0.6106 and 0.5978
- TOP [2]: 100
- pXC50 [2]: 5.239 and 5.299

SMILES: COCC(NC(=O)c1cn2ccsc2n1)c1ccnn1C (stereo unspecified)
- cytotoxicity at 70.5 h [1]: 97.2%
- BOTTOM [2]: 0
- HILLSLOPE [2]: 0
- TOP [2]: 0
- pXC50 [2]: < 4.53

SMILES: Cc1nc(Nc2ncc(C)s2)cc(C2CCCN2)n1.Cl (stereo unspecified)
- cytotoxicity at 70.5 h [1]: 95.5%
- BOTTOM [2]: 26.01 and 24.5
- HILLSLOPE [2]: 4.462 and 3.743
- TOP [2]: 100.2 and 98.81
- pXC50 [2]: 5.319 and 5.315

SMILES: CCc1nc(CN(C)C2CCN(Cc3cnc(C)cn3)C2)no1 (stereo unspecified)
- cytotoxicity at 70.5 h [1]: 66%
- BOTTOM [2]: 0
- HILLSLOPE [2]: 0
- TOP [2]: 0
- pXC50 [2]: < 4.53

SMILES: COc1ccccc1NC(=O)c1ccc(C)n1C
- cytotoxicity at 70.5 h [1]: 96%
- BOTTOM [2]: -9.133 and -11.57
- HILLSLOPE [2]: 2.979 and 2.832
- TOP [2]: 100
- pXC50 [2]: 5.661 and 5.693

SMILES: Cc1noc(C)c1C(=O)N1CCCC1c1c(C)nn(C)c1Cl (stereo unspecified)
- cytotoxicity at 70.5 h [1]: 103%
- BOTTOM [2]: 0
- HILLSLOPE [2]: 0
- TOP [2]: 0
- pXC50 [2]: < 4.53

SMILES: Cc1nc(CC(C)C)cc(C(=O)N2C[C@@H](N(C)C)[C@H](C(C)C)C2)n1
- cytotoxicity at 70.5 h [1]: 67%
- BOTTOM [2]: 0
- HILLSLOPE [2]: 0
- TOP [2]: 0
- pXC50 [2]: < 4.53

SMILES: Cc1nn(C)cc1C(=O)Nc1cccc(CN2CCC(CO)CC2)c1
- cytotoxicity at 70.5 h [1]: 60.6%
- BOTTOM [2]: 0
- HILLSLOPE [2]: 0
- TOP [2]: 0
- pXC50 [2]: < 4.53

SMILES: Cc1n[nH]c(C2CN(CC(=O)NCCC3=CCCCC3)CCO2)n1 (stereo unspecified)
- cytotoxicity at 70.5 h [1]: 76.6%
- BOTTOM [2]: 0
- HILLSLOPE [2]: 0
- TOP [2]: 0
- pXC50 [2]: < 4.53

SMILES: CN1Cc2ccccc2CC2(CCN(C(=O)N3CCOCC3)CC2)C1=O
- cytotoxicity at 70.5 h [1]: 24.7%

SMILES: Cc1nnc2n1CCN(C(=O)c1cc3cc(F)ccc3[nH]1)C2
- cytotoxicity at 70.5 h [1]: -12.8%

SMILES: Cc1ccc(C(=O)NCC(O)c2cnn(C)c2)c(Br)c1 (stereo unspecified)
- cytotoxicity at 70.5 h [1]: -14.7%

SMILES: COc1ccnc(CN2CC(=O)N(c3ccc(C)cc3)CC2C)c1OC (stereo unspecified)
- cytotoxicity at 70.5 h [1]: 16.8%

SMILES: CN1CC(C(=O)N2CCN(c3cccc(Cl)c3)C(=O)C2)NC1=O (stereo unspecified)
- cytotoxicity at 70.5 h [1]: -7.63%

SMILES: COc1c(C)cnc(CN(C)C(=O)c2ccc(C3CCCO3)s2)c1C (stereo unspecified)
- cytotoxicity at 70.5 h [1]: -6.12%

SMILES: Cc1nc(N2CCCC2)nc(C)c1NS(=O)(=O)c1ccccc1F
- cytotoxicity at 70.5 h [1]: -1.28%

SMILES: CCOC(=O)Cc1cs/c(=N/C(=O)COc2cnc(C)cc2O)[nH]1
- cytotoxicity at 70.5 h [1]: 5.42%

SMILES: CN(CCN1CCOCC1)C(=O)CCc1ccc(C(F)(F)F)cc1
- cytotoxicity at 70.5 h [1]: 10.6%

SMILES: CCCc1noc2ncc(C(=O)N3CCCC3c3cnn(C)c3)cc12 (stereo unspecified)
- cytotoxicity at 70.5 h [1]: -6.19%

SMILES: Cc1ccc(C)c2c(C)c(C(=O)NCCCn3ccnn3)[nH]c12
- cytotoxicity at 70.5 h [1]: 43.6%

SMILES: COc1ccc(Nc2nc(N)c(C(C)=O)s2)cc1Cl
- cytotoxicity at 70.5 h [1]: -9.72%

SMILES: Cc1nc(O)cc(C2CCN(C(=O)C(C)Cn3nc(C)nc3C)CC2)n1 (stereo unspecified)
- cytotoxicity at 70.5 h [1]: -4.5%

SMILES: CC(O)CN1CCN(Cc2coc(-c3ccccc3)n2)CC1 (stereo unspecified)
- cytotoxicity at 70.5 h [1]: -7.79%

SMILES: CCC(=O)NCCc1cc2nc(-c3ccncc3)ccn2n1
- cytotoxicity at 70.5 h [1]: -5.77%

SMILES: CC1(C)CN(CC(=O)NCc2ccccc2F)C[C@]1(C)O
- cytotoxicity at 70.5 h [1]: -9.16%

SMILES: Cc1cc(N2CCC(Cc3ccncc3)C2)ncn1 (stereo unspecified)
- cytotoxicity at 70.5 h [1]: -3.38%

SMILES: O=C(Nc1cccc(CN2CCOC2=O)c1)N1CCCC1
- cytotoxicity at 70.5 h [1]: -6.57%

SMILES: CCN(CC)S(=O)(=O)c1ccc2c(c1)N(Cc1ccccn1)C(=O)CS2
- cytotoxicity at 70.5 h [1]: -4.62%

SMILES: Cc1nn(-c2ccc(C(=O)O)cc2)c2c1C(CC(C)C)SCC(=O)N2 (stereo unspecified)
- cytotoxicity at 70.5 h [1]: 0.483%

SMILES: CCc1cnc2c(c1Nc1cccc(OC)c1)c(=O)n(C)c(=O)n2C
- cytotoxicity at 70.5 h [1]: 1.18%

SMILES: Cc1n[nH]c(C)c1CCC(=O)N1CCc2c(nc[nH]c2=O)C1
- cytotoxicity at 70.5 h [1]: -22.4%

SMILES: O=C(c1ccccc1F)N1CCN(c2ccc(-n3cccn3)nn2)CC1
- cytotoxicity at 70.5 h [1]: 0.31%

SMILES: O=C(c1cnccn1)N1C[C@@H]2CCN(c3cnccn3)C[C@@H]2C1
- cytotoxicity at 70.5 h [1]: -7.66%

SMILES: COC(=O)CCCNC(=O)Nc1ccccc1OC
- cytotoxicity at 70.5 h [1]: 12.5%

SMILES: CC(C)(C)C(=O)NCCn1ccc(-c2ccccn2)n1
- cytotoxicity at 70.5 h [1]: -1.26%

SMILES: CCC(C)N(Cc1cnc(NCC(=O)O)nc1)Cc1ccsc1 (stereo unspecified)
- cytotoxicity at 70.5 h [1]: -7.35%

SMILES: Cc1ccsc1-c1nnc(SCC(=O)O)n1C(C)c1ccccc1 (stereo unspecified)
- cytotoxicity at 70.5 h [1]: -5.54%

SMILES: CC(C)(C)C(=O)NS(=O)(=O)c1ccc(F)cc1C(F)(F)F
- cytotoxicity at 70.5 h [1]: -3.41%

SMILES: NC(=O)C1CCN(C(=O)NCc2cccnc2OCC(F)(F)F)C1 (stereo unspecified)
- cytotoxicity at 70.5 h [1]: -1.73%

SMILES: Cc1cnc2n(c1=O)C(CC(=O)NCc1cccs1)CS2 (stereo unspecified)
- cytotoxicity at 70.5 h [1]: 0.951%

SMILES: Cc1nn(C)c(Cl)c1C1CCCN1C(=O)c1csnn1 (stereo unspecified)
- cytotoxicity at 70.5 h [1]: -4.32%

SMILES: Cn1cnnc1C1CCCN(C(=O)Cc2ccc3c(c2)OCCO3)C1 (stereo unspecified)
- cytotoxicity at 70.5 h [1]: 0.026%

SMILES: COc1ccc(CNC(C)c2ccc(Cl)c(Cl)c2)c(OC)c1OC (stereo unspecified)
- cytotoxicity at 70.5 h [1]: 5.68%
